Laboratory results published in patent US20180325914A1, “INCREASING STORAGE OF VITAMIN A, VITAMIN D AND/OR LIPIDS” (Salk Institute for Biological Studies, priority 2014, published 2018).

Test system: BRD2, BRD3, BRD4 (BETs) occupancy on chromatin
Format: cell-based, human
Details: LX-2 cells; 500 nM, 16 hr
Method: Cells were then harvested for ChIP assay. The experimental procedure for ChIP was as previously described.
The procedure was as previously described^5,31. Briefly, short DNA reads were demultiplexed using the Illumina CASAVA v1.8.2. […] Only tags that map uniquely to the genome were considered for further analysis. Subsequent peak calling and motif analysis were conducted using HOMER, a software suite for ChIP-Seq analysis. The methods for HOMER, which are described below, have been implemented and are freely available on the internet (biowhat.ucsd.edu/homer/). One tag from each unique position was considered to eliminate peaks resulting from clonal amplification of fragments during the ChIP-Seq protocol. Peaks were identified by searching for clusters of tags within a sliding 200 bp window, requiring adjacent clusters to be at least 1 kb away from each other. The threshold for the number of tags that determine a valid peak was selected for a false discovery rate of <0.01, as empirically determined by repeating the peak finding procedure using randomized tag positions. […] Peaks are annotated to gene products by identifying the nearest RefSeq transcriptional start site. Visualization of ChIP-Seq results was achieved by uploading custom tracks onto the UCSC genome browser.
BETs are chromatin regulators^7.

Compound: Cc1sc2c(c1C)C(c1ccc(Cl)cc1)=N[C@@H](CC(=O)OC(C)(C)C)c1nnc(C)n1-2 [JQ1, (S)-tert-butyl 2-(4-(4-chlorophenyl)-2,3,9-trimethyl-6H-thieno[3,2-f][1,2,4]triazolo[4,3-a][1,4]diazepin-6-yl)acetate]
- BET occupancy at the COL1A1 enhancer locus (ChIP): significantly diminished
- PAF1 and CDK9 (elongation cofactors) on chromatin: displaced
- occupancy of BETs on chromatin (ChIP-Seq): dramatically reduces
- recruitment of serine 2 phosphorylated form (S2p) of RNA Pol II: specific decrease
- sensitivity of BRD4 occupancy on super-enhancer regions to reduction, versus control enhancer regions: more sensitive
- serine 5 Pol II phospho-form (S5p): little change
